How the values were obtained:
ob/ob mice = test: Hyperglycemia, hyperlipidemia, fatty liver disease and weight gain in ob/ob obese diabetic mice, daily oral dosing; format: in vivo, C57BL/6 mice; conditions: for Free Fatty Acids ± SEM / Glucose ± SEM / Triglycerides ± SEM / ALT (U/L) ± SEM / AST (U/L) ± SEM / SDH (U/L) ± SEM: 4 weeks; for ALT (U/L) ± SEM / AST (U/L) ± SEM / SDH (U/L) ± SEM: serum
Text: Ob/ob mice have a defect in the gene for leptin, a protein involved in appetite regulation and energy metabolism, and are hyperphagic, obese, and insulin resistant. They develop hyperglycemia and fatty liver.

[1] = tested on: ob/ob obese diabetic mice; test: Acute hypoglycemic effect in ob/ob obese diabetic mice: Expt 2; format: in vivo; conditions: single oral dose 250 mg/kg
Description: Male ob/ob mice (50-55 grams; blood glucose ˜300 mg/dL) were divided into groups of five animals each, and given a single oral dose of test drug (250 mg/kg) suspended in 0.5% carboxymethylcellulose vehicle; a control group received oral vehicle alone.
Six hours after oral administration of test drugs or vehicle (control), blood samples were obtained from a tail vein and glucose content was determined with a glucometer.

db/db mice [2] = test: Antidiabetic effects in db/db mice, four weeks of daily oral dosing; format: in vivo; conditions: for Glucose / Glucose (% of Control): 150 mg/kg daily oral, four weeks; for blood glucose: after four weeks of daily oral dosing (Compound AW, BH 150 mg/kg; pioglitazone 100 mg/kg)
Text: Db/db mice have a defect in leptin signaling, leading to hyperphagia, obesity and diabetes. Moreover, unlike ob/ob mice which have relatively robust islets, their insulin-producing pancreatic islet cells undergo failure during chronic hyperglycemia, so that they transition from hyperinsulinemia (associated with peripheral insulin resistance) to hypoinsulinemic diabetes.
Male db/db mice were given daily oral treatments with vehicle (0.75% hydroxypropylmethylcellulose) or antidiabetic compounds as indicated below. Blood samples were obtained via the retro-orbital sinus for serum chemistry analysis, or via the tail vein for glucose measurement with a test strip and glucometer.
The dose of pioglitazone used in this experiment was reported in the literature to be a maximally-effective dose for treatment of db/db mice (Shimaya et al. (2000), Metabolism 49:411-7).

[3] = tested on: Zucker Diabetic Fatty (ZDF) rats; test: Attenuation of cataractogenesis in Zucker Diabetic Fatty (ZDF) rats; format: in vivo; conditions: 100 mg/kg daily oral, 10 weeks
Text: Cataracts are one of the leading causes of progressive vision decline and blindness associated with ageing and diabetes, and the Zucker diabetic fatty (ZDF) model has many similarities with human cataractogenesis, including biochemical changes and oxidative stress in the lens. These rats, however, undergo cataractogenesis typically between 14-16 weeks of age.
Male ZDF rats and their aged-match Zucker lean (ZL) counterparts (fa/+ or +/+) were obtained from Genetic Models, Inc. (Indianapolis, Ind.) aged 12 weeks and acclimatized for 1 week prior to study. […] Treatment cohorts were given a daily oral dose of vehicle and 100 mg/kg of BI or BH for 10 weeks. […] At the end of the treatment period 100 μl of venous blood was collected (usually 10:00 A.M.) in a heparinized tube from the tail vein for serum chemistry analysis (Anilytics, Inc., Gaithersburg, Md.). […] Plasma insulin was measured by an electrochemiluminescent immunoassay, ECL (Origen Analyzer, Igen, Inc., Gaithersburg, Md.). The animals were sacrificed and tissues and/or organs (lens and liver) were extirpated, weighed (wet weight) and processed for biochemical analyses. Malondialdehyde (MDA), a major product of lipid peroxidation was assayed in lenses according to Ohkawa et al (1979), Analytical Biochem 95, 351-358).

db/db mice [4] = test: Antidiabetic effects in db/db mice, second experiment, 8 weeks of treatment; format: in vivo; conditions: 20 mg/kg, 8 weeks of treatment
Text: Blood samples were obtained via the retro-orbital sinus for serum chemistry analysis, or via the tail vein for glucose measurement with a test strip and glucometer.
Groups consisted of 6-8 mice each.

[5] = tested on: high fat-fed C57Bl/6J mice; test: Circulating triglycerides, free fatty acids, insulin and leptin in high fat-fed C57Bl/6J mice; format: in vivo; conditions: after 2 weeks of drug treatments
Text: The high fat-fed mouse is a model for the hypertriglyceridemia and high circulating fatty acid levels, and the insulin and leptin resistance that are found in people at risk for and with obesity, diabetes, cardiovascular disease and other disorders. Male C57Bl/6J mice, approximately 8 weeks of age, were randomly assigned into groups of 6 animals. […] Mice were fed a high-fat diet (diet number D12451, containing 45% of calories as fat (Research Diets, New Brunswick, N.J.)) for 6 weeks. […]

[6] = 3 mg/kg/day, four week treatment period
[7] = 10 mg/kg/day, four week treatment period
[8] = 30 mg/kg/day, four week treatment period

SMILES: O=C(O)CCC(=O)c1cccc(OCc2c(F)cccc2F)c1 [Compound AW, 4-(3-(2,6-Difluorobenzyloxy)phenyl)-4-oxobutyric acid]
- Mean body weight gain (grams) (ob/ob mice; [6]): +7.3 grams
- Free Fatty Acids ± SEM (ob/ob mice; 10 mg/kg/day oral): 3697.4 ± 357.8 µmol/L
- Glucose ± SEM (ob/ob mice; 10 mg/kg/day oral): 369.6 ± 62.5 mg/dL
- Triglycerides ± SEM (ob/ob mice; 10 mg/kg/day oral): 115.6 ± 7.8 mg/dL
- Mean body weight gain (grams) (ob/ob mice; [7]): +6.7 grams
- Free Fatty Acids ± SEM (ob/ob mice; 30 mg/kg/day oral): 2552.2 ± 334.7 µmol/L
- Glucose ± SEM (ob/ob mice; 30 mg/kg/day oral): 280.2 ± 46.7 mg/dL
- Triglycerides ± SEM (ob/ob mice; 30 mg/kg/day oral): 96.4 ± 7.3 mg/dL
- Mean body weight gain (grams) (ob/ob mice; [8]): +6.4 grams
- Free Fatty Acids ± SEM (ob/ob mice; 100 mg/kg/day oral): 1476 ± 82.1 µmol/L
- Glucose ± SEM (ob/ob mice; 100 mg/kg/day oral): 286 ± 47.1 mg/dL
- Triglycerides ± SEM (ob/ob mice; 100 mg/kg/day oral): 66.2 ± 5.9 mg/dL
- Mean body weight gain (grams) (ob/ob mice; 100 mg/kg/day, four week treatment period): +3.4 grams
- Free Fatty Acids ± SEM (ob/ob mice; 150 mg/kg/day oral): 1481 ± 158.8 µmol/L
- Glucose ± SEM (ob/ob mice; 150 mg/kg/day oral): 188.6 ± 28.8 mg/dL
- Triglycerides ± SEM (ob/ob mice; 150 mg/kg/day oral): 72.6 ± 5.6 mg/dL
- Mean body weight gain (grams) (ob/ob mice; 150 mg/kg/day, four week treatment period): +4.6 grams
- Free Fatty Acids ± SEM (ob/ob mice; 300 mg/kg/day oral): 1452.6 ± 111.1 µmol/L
- Glucose ± SEM (ob/ob mice; 300 mg/kg/day oral): 128.4 ± 8.8 mg/dL
- Triglycerides ± SEM (ob/ob mice; 300 mg/kg/day oral): 63.6 ± 3.4 mg/dL
- Mean body weight gain (grams) (ob/ob mice; 300 mg/kg/day, four week treatment period): −0.7 grams
- blood glucose (ob/ob mice; daily oral doses, compared with pioglitazone and rosiglitazone): reduction in blood glucose comparable to that achieved with pioglitazone and rosiglitazone
- liver fat droplets (liver histology) (ob/ob mice; daily treatment for 4 weeks): marked reduction in liver fat droplets
- serum triglycerides and fatty acids (ob/ob mice; doses of 100 to 300 mg/kg/day, versus comparators at their optimum antihyperglycemic doses): reduced serum triglycerides and fatty acids better than did either rosiglitazone or pioglitazone
- serum liver enzymes (ALT, AST, SDH) (ob/ob mice; doses ranging from 30 mg/kg/day to 300 mg/kg/day): dose-dependent decrease in serum liver enzymes
- weight gain relative to vehicle-treated mice (ob/ob mice; four week treatment period): dose-dependent attenuation of weight gain
- ALT (U/L) ± SEM (ob/ob mice; 10 mg/kg/day oral): 483.8 ± 81.9 U/L
- AST (U/L) ± SEM (ob/ob mice; 10 mg/kg/day oral): 653.4 ± 104.8 U/L
- SDH (U/L) ± SEM (ob/ob mice; 10 mg/kg/day oral): 626.8 ± 93.8 U/L
- ALT (U/L) ± SEM (ob/ob mice; 30 mg/kg/day oral): 320.2 ± 46.2 U/L
- AST (U/L) ± SEM (ob/ob mice; 30 mg/kg/day oral): 399.6 ± 74.4 U/L
- SDH (U/L) ± SEM (ob/ob mice; 30 mg/kg/day oral): 333.0 ± 66.9 U/L
- ALT (U/L) ± SEM (ob/ob mice; 100 mg/kg/day oral): 202.8 ± 38.0 U/L
- AST (U/L) ± SEM (ob/ob mice; 100 mg/kg/day oral): 143.8 ± 30.4 U/L
- SDH (U/L) ± SEM (ob/ob mice; 100 mg/kg/day oral): 121.2 ± 14.1 U/L
- ALT (U/L) ± SEM (ob/ob mice; 150 mg/kg/day oral): 149.2 ± 15.6 U/L
- AST (U/L) ± SEM (ob/ob mice; 150 mg/kg/day oral): 185.8 ± 26.0 U/L
- SDH (U/L) ± SEM (ob/ob mice; 150 mg/kg/day oral): 166.2 ± 20.0 U/L
- ALT (U/L) ± SEM (ob/ob mice; 300 mg/kg/day oral): 188.2 ± 10.3 U/L
- AST (U/L) ± SEM (ob/ob mice; 300 mg/kg/day oral): 335.4 ± 44.8 U/L
- SDH (U/L) ± SEM (ob/ob mice; 300 mg/kg/day oral): 207.0 ± 29.3 U/L
- Blood Glucose after 6 hours [1]: 143 ± 15 mg/dL
- Glucose (db/db mice [2]): 313 ± 34 mg/dL
- Glucose (% of Control) (db/db mice [2]): 56 ± 6 % of Control
- blood glucose (db/db mice [2]): significant reduction in blood glucose

SMILES: O=C(O)CCC(=O)c1cccc(OCC2CC2)c1 [Compound BH, 4-(3-((Cyclopropyl)-methoxy)phenyl)-4-oxobutyric acid]
- Glucose (db/db mice [2]): 229 ± 49 mg/dL
- Glucose (% of Control) (db/db mice [2]): 41 ± 9 % of Control
- blood glucose (db/db mice [2]): significant reduction in blood glucose
- % Protection Left Eye [3]: 33%
- % Protection Right Eye [3]: 17%
- Cataract Formation Left Eye [3]: 4/6
- Cataract Formation Right Eye [3]: 5/6
- Lenticular MDA ([3]; means ± SEM): 1.9 ± 0.2 nmol/g lens
- Size (mm) Left Lens ([3]; means ± SEM): 2.5 ± 0.3 mm
- Size (mm) Right Lens ([3]; means ± SEM): 2.1 ± 0.4 mm
- Weight (mg) Left Lens ([3]; means ± SEM): 27.0 ± 7.2 mg
- Weight (mg) Right Lens ([3]; means ± SEM): 20.0 ± 6.6 mg

SMILES: CN(CCOc1ccc(CC2SC(=O)NC2=O)cc1)c1ccccn1 (centres unmarked) [Rosiglitazone, rosiglitazone, reference compound]
- Free Fatty Acids ± SEM (ob/ob mice; 1 mg/kg/day oral): 2090.75 ± 67.7 µmol/L
- Glucose ± SEM (ob/ob mice; 1 mg/kg/day oral): 142.75 ± 8.8 mg/dL
- Triglycerides ± SEM (ob/ob mice; 1 mg/kg/day oral): 109.75 ± 4.4 mg/dL
- Mean body weight gain (grams) (ob/ob mice; 1 mg/kg/day, four week treatment period): +8.2 grams
- Free Fatty Acids ± SEM (ob/ob mice; 3 mg/kg/day oral): 2317.6 ± 85.3 µmol/L
- Glucose ± SEM (ob/ob mice; 3 mg/kg/day oral): 190.2 ± 12.7 mg/dL
- Triglycerides ± SEM (ob/ob mice; 3 mg/kg/day oral): 107.8 ± 3.8 mg/dL
- Mean body weight gain (grams) (ob/ob mice; [6]): +8.5 grams
- Free Fatty Acids ± SEM (ob/ob mice; 10 mg/kg/day oral): 2606.4 ± 139.2 µmol/L
- Glucose ± SEM (ob/ob mice; 10 mg/kg/day oral): 188.2 ± 21.4 mg/dL
- Triglycerides ± SEM (ob/ob mice; 10 mg/kg/day oral): 111.2 ± 7.5 mg/dL
- Mean body weight gain (grams) (ob/ob mice; [7]): +11.0 grams
- Free Fatty Acids ± SEM (ob/ob mice; 30 mg/kg/day oral): 1983.4 ± 66.1 µmol/L
- Glucose ± SEM (ob/ob mice; 30 mg/kg/day oral): 174.6 ± 11.5 mg/dL
- Triglycerides ± SEM (ob/ob mice; 30 mg/kg/day oral): 95.2 ± 4.8 mg/dL
- Mean body weight gain (grams) (ob/ob mice; [8]): +12.0 grams
- Glucose (db/db mice [4]): 343 ± 38 mg/dL
- Triglycerides (db/db mice [4]): 89 ± 16 mg/dL
- Free Fatty Acids ([5]; 1 mg/kg oral gavage): 1537 ± 256.3 µmol/L
- Triglycerides ([5]; 1 mg/kg oral gavage): 76.6 ± 16.5 mg/dL
- Free Fatty Acids ([5]; 3 mg/kg oral gavage): 1833.2 ± 169.8 µmol/L
- Triglycerides ([5]; 3 mg/kg oral gavage): 103.2 ± 10.8 mg/dL
- Free Fatty Acids ([5]; 10 mg/kg oral gavage): 1810.3 ± 595 µmol/L
- Triglycerides ([5]; 10 mg/kg oral gavage): 129.5 ± 48.7 mg/dL
- Free Fatty Acids ([5]; 100 mg/kg oral gavage): 1568.5 ± 197 µmol/L
- Triglycerides ([5]; 100 mg/kg oral gavage): 88 ± 7.2 mg/dL

— patent publication US6924314B2, “Compounds for the treatment of metabolic disorders” (Wellstat Therapeutics Corporation, priority 2001, dated 2005)
